Reference: patent publication US20210261621A1, “Preparation of Dilipid Polymixins and Use Thereof as Antimicrobial Adjuvants” (priority 2018, published 2021)
In brackets after ≈: the same amount, converted by molar mass. Several values for one entry are separate records, joined by “and”; a condition that tells them apart may be missing. Equal entries are not always repeated. Where two headings read alike, the source gives them in different places. Positions of bridges follow the written chain, without caps; N, C: chain ends. Non-standard residues stand in square brackets, D forms with d. Residues, ends and D or L forms follow the SMILES beside them. *: point of attachment. Acetyl(1-adamantyl) = O=C(CC12CC3CC(CC(C3)C1)C2)*; Dab = NCC[C@H](N)C(=O)O

Experiments:
pig erythrocytes = conditions: red cells of pig, 1 h, 512
[1] = test system: E. coli CANWARD-2011 97615; assay type: cell-based, Escherichia coli
In short: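 Broth microdilution per CLSI in Mueller-Hinton broth, with 2-fold serial compound dilutions and inoculum of approximately 5×10^5 CFU/mL from overnight cultures. Plates were incubated 18 h at 37° C.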

P. aeruginosa PAO1 = test system: P. aeruginosa PAO1; parameters: MICDrug / MICDrug in combo / MIC of adjuvant in combo: unit not given beside the values

SMILES: CC(C)C[C@@H]1NC(=O)[C@@H](Cc2ccccc2)NC(=O)[C@H](CCN)NC(=O)[C@@H](NC(=O)[C@H](CCN)NC(=O)[C@@H](NC(=O)[C@H](CCNC(=O)CC23CC4CC(CC(C4)C2)C3)NC(=O)CC23CC4CC(CC(C4)C2)C3)[C@@H](C)O)CCNC(=O)[C@H]([C@@H](C)O)NC(=O)[C@H](CCN)NC(=O)[C@H](CCN)NC1=O [Compound 4, Diadamantane Acetic Acid (Di-Adamantyl) Polymyxin] ({Acetyl(1-adamantyl)}-[Dab](Acetyl(1-adamantyl))T[Dab][Dab][Dab][dF]L[Dab][Dab]T; lactam 4-C)
- % Hemolysis at 512 μg/mL of polymyxin (pig erythrocytes): 3.2 ± 0.4%
- MIC [1]: 64 µg/mL (≈ 45.2 µM)
- MIC of adjuvant alone (MIC1, MIC2, MIC3, MIC4, MIC5, MICPMBN) (P. aeruginosa PAO1; adjuvant alone, one value per checkerboard, in µg/mL): 16 and 8
- Interpretation (P. aeruginosa PAO1; combination with Aztreonam): Additive (An FIC index of ≤0.5, 0.5<x≤4, or >4 denotes for synergistic, additive or antagonistic interaction, respectively)
- Interpretation (P. aeruginosa PAO1; combination with Ceftazidime): Additive (An FIC index of ≤0.5, 0.5<x≤4, or >4 denotes for synergistic, additive or antagonistic interaction, respectively)
- Interpretation (P. aeruginosa PAO1; combination with Chloramphenicol): Additive (An FIC index of ≤0.5, 0.5<x≤4, or >4 denotes for synergistic, additive or antagonistic interaction, respectively)
- Interpretation (P. aeruginosa PAO1; combination with Ciprofloxacin): Additive (An FIC index of ≤0.5, 0.5<x≤4, or >4 denotes for synergistic, additive or antagonistic interaction, respectively)
- Interpretation (P. aeruginosa PAO1; combination with Clindamycin): Additive (An FIC index of ≤0.5, 0.5<x≤4, or >4 denotes for synergistic, additive or antagonistic interaction, respectively)
- Interpretation (P. aeruginosa PAO1; combination with Doripenem): Additive (An FIC index of ≤0.5, 0.5<x≤4, or >4 denotes for synergistic, additive or antagonistic interaction, respectively)
- Interpretation (P. aeruginosa PAO1; combination with Doxycycline): Additive (An FIC index of ≤0.5, 0.5<x≤4, or >4 denotes for synergistic, additive or antagonistic interaction, respectively)
- Interpretation (P. aeruginosa PAO1; combination with Fosfomycin): Additive (An FIC index of ≤0.5, 0.5<x≤4, or >4 denotes for synergistic, additive or antagonistic interaction, respectively)
- Interpretation (P. aeruginosa PAO1; combination with Gentamicin): Additive (An FIC index of ≤0.5, 0.5<x≤4, or >4 denotes for synergistic, additive or antagonistic interaction, respectively)
- Interpretation (P. aeruginosa PAO1; combination with Linezolid): Additive (An FIC index of ≤0.5, 0.5<x≤4, or >4 denotes for synergistic, additive or antagonistic interaction, respectively)
- Interpretation (P. aeruginosa PAO1; combination with Meropenem): Additive (An FIC index of ≤0.5, 0.5<x≤4, or >4 denotes for synergistic, additive or antagonistic interaction, respectively)
- Interpretation (P. aeruginosa PAO1; combination with Minocycline): Additive (An FIC index of ≤0.5, 0.5<x≤4, or >4 denotes for synergistic, additive or antagonistic interaction, respectively)
- Interpretation (P. aeruginosa PAO1; combination with Moxifloxacin): Additive (An FIC index of ≤0.5, 0.5<x≤4, or >4 denotes for synergistic, additive or antagonistic interaction, respectively)
- Interpretation (P. aeruginosa PAO1; combination with Novobiocin): Additive (An FIC index of ≤0.5, 0.5<x≤4, or >4 denotes for synergistic, additive or antagonistic interaction, respectively)
- Interpretation (P. aeruginosa PAO1; combination with Piperacillin): Additive (An FIC index of ≤0.5, 0.5<x≤4, or >4 denotes for synergistic, additive or antagonistic interaction, respectively)
- Interpretation (P. aeruginosa PAO1; combination with Pleuromutilin): Additive (An FIC index of ≤0.5, 0.5<x≤4, or >4 denotes for synergistic, additive or antagonistic interaction, respectively)
- Interpretation (P. aeruginosa PAO1; combination with Rifampicin): Additive (An FIC index of ≤0.5, 0.5<x≤4, or >4 denotes for synergistic, additive or antagonistic interaction, respectively)
- Interpretation (P. aeruginosa PAO1; combination with Streptomycin): Additive (An FIC index of ≤0.5, 0.5<x≤4, or >4 denotes for synergistic, additive or antagonistic interaction, respectively)
- Interpretation (P. aeruginosa PAO1; combination with Tobramycin): Additive (An FIC index of ≤0.5, 0.5<x≤4, or >4 denotes for synergistic, additive or antagonistic interaction, respectively)
- Interpretation (P. aeruginosa PAO1; combination with Trimethoprim): Additive (An FIC index of ≤0.5, 0.5<x≤4, or >4 denotes for synergistic, additive or antagonistic interaction, respectively)
- Interpretation (P. aeruginosa PAO1; combination with Vancomycin): Additive (An FIC index of ≤0.5, 0.5<x≤4, or >4 denotes for synergistic, additive or antagonistic interaction, respectively)
- MIC of adjuvant in combo (P. aeruginosa PAO1; in combination with Aztreonam): (8)
- MIC of adjuvant in combo (P. aeruginosa PAO1; in combination with Ceftazidime): (8)
- MIC of adjuvant in combo (P. aeruginosa PAO1; in combination with Chloramphenicol): (4)
- MIC of adjuvant in combo (P. aeruginosa PAO1; in combination with Ciprofloxacin): (0.25)
- MIC of adjuvant in combo (P. aeruginosa PAO1; in combination with Clindamycin): (4)
- MIC of adjuvant in combo (P. aeruginosa PAO1; in combination with Doripenem): (8)
- MIC of adjuvant in combo (P. aeruginosa PAO1; in combination with Doxycycline): (4)
- MIC of adjuvant in combo (P. aeruginosa PAO1; in combination with Fosfomycin): (4)
- MIC of adjuvant in combo (P. aeruginosa PAO1; in combination with Gentamicin): (0.25)
- MIC of adjuvant in combo (P. aeruginosa PAO1; in combination with Linezolid): (8)
- MIC of adjuvant in combo (P. aeruginosa PAO1; in combination with Meropenem): (4)
- MIC of adjuvant in combo (P. aeruginosa PAO1; in combination with Minocycline): (4)
- MIC of adjuvant in combo (P. aeruginosa PAO1; in combination with Moxifloxacin): (4)
- MIC of adjuvant in combo (P. aeruginosa PAO1; in combination with Novobiocin): (4)
- MIC of adjuvant in combo (P. aeruginosa PAO1; in combination with Piperacillin): (0.25)
- MIC of adjuvant in combo (P. aeruginosa PAO1; in combination with Pleuromutilin): (4)
- MIC of adjuvant in combo (P. aeruginosa PAO1; in combination with Rifampicin): (4)
- MIC of adjuvant in combo (P. aeruginosa PAO1; in combination with Streptomycin): (0.25)
- MIC of adjuvant in combo (P. aeruginosa PAO1; in combination with Tobramycin): (0.25)
- MIC of adjuvant in combo (P. aeruginosa PAO1; in combination with Trimethoprim): (8)
- MIC of adjuvant in combo (P. aeruginosa PAO1; in combination with Vancomycin): (4)
- adjuvant activity (potentiation of the panel of 21 antibiotics) (P. aeruginosa PAO1; result in words): did not enhance the activity of any antibiotics
